System: primary cultures of rat cortical neurons
Experiment: Cell protective activity against glutamate induced-neurotoxicity (MTT assay)
Type: cell-based, Sprague-Dawley rats
Experimental: The extracts of Dioscorea opposita were suspended in DMSO (Sigma Co., Ltd) and diluted to the extent that the final concentration reaches to <0.1%. Each suspension was filtered with 0.22 μm membrane filter (Millipore Co., Ltd.) to sterilize. After the concentrations of each fractions were adjusted to 100 μg/ml and 10 μg/ml, The test samples with various final concentration of various fractions were named as follows: 100 μg/ml of hexane layer (H100), 10 μg/ml of hexane layer (H10), 100 μg/ml of water layer (W100), 10 μg/ml of water layer (W10), 100 μg/ml of ethyl-acetate layer (E100), 10 μg/ml of ethylacetate layer (E10), 100 μg/ml of chloroform layer (C100), 10 μg/ml of chloroform layer (C10), 100 μg/ml of butanol layer (B100), 10 μg/ml of butanol layer (B10) respectively. The cultured cell was pretreated with each test sample 1 hour before the glutamate treatment and the protective activity of D. opposita against the death of cerebral cortex cells was assessed.
The tested fractions were dissolved in DMSO and diluted to the extent that the final concentration reaches to <0.1%. The matured cerebral cortex cells for 15 days were pretreated with the test fractions for 1 hour and then exposed to 100 μM glutamate. After further incubation for 24 hour, the neuronal survival was quantified using by MTT assay, which yields blue formazan products in living cells.

SMILES: C[C@]12N[C@H](Cc3ccccc31)c1ccccc12 [MK801]
- Protection activity (%) (MK801 positive control in Table 1, concentration not given): 79%
- Relative protection (positive control at 10 μM, P<0.0001): 80.6±1.6%

Source: patent publication US7824718B2, “Extract of Dioscorea opposita thunb showing neuronal cell-protecting activity for treating memory loss” (Tong Yang Moolsan Co., Ltd., priority 2005, dated 2010)
